Test results reported in patent US9145415B2, “Nitrogen-containing heterocyclic compound or salt thereof” (FUJIFILM Corporation, priority 2012, dated 2015).

Experiments:
[1] = molecular target: T1, human FLT3 protein (FLT3 (WT)) (Homo sapiens, UniProt P36888); assay: FLT3 inhibition test (FLT3 enzyme inhibition, time-resolved fluorescence of substrate peptide phosphorylation); format: biochemical; details: GST-fused human FLT3 (564 to 993 aa), ATP 50 μM; read-out: FLT3 (WT) enzyme inhibition activity
T1 construct: human FLT3 protein (intracellular region, 564 to 993 aa); GST; purchased Carna Biosciences; host or cells: baculovirus expression system
T1 sequence (P36888 564-993): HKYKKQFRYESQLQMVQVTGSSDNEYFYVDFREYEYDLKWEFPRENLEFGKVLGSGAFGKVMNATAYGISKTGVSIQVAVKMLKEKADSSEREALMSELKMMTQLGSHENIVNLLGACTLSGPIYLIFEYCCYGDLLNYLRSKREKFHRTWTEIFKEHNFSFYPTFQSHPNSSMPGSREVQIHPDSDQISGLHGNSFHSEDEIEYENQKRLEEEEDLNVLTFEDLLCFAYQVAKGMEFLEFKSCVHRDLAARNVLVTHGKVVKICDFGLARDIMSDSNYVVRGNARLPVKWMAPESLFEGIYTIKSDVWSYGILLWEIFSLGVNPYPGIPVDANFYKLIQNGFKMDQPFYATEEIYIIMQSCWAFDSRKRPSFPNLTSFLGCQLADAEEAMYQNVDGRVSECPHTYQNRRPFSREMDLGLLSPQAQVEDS
How it was run: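 Substrate peptide phosphorylation detected by time-resolved fluorescence after a 30 min kinase reaction at 25° C with 50 μM ATP (final). Beforehand, compound and FLT3 (WT, 1.2 μg) stood 15 min at 25° C in HEPES buffer pH 7.5 containing MgCl2, NaCl, BSA and DTT.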

Molm-13 cells = assay: Leukemia cell proliferation inhibition test (ATPlite), Molm-13; format: cell-based; details: Homo sapiens, MOLM-13, 72 h, Molm-13, 72 hours culture, ATPlite; GI50 per method; read-out: MOLM13 cell proliferation inhibition effect
How it was run: (§1)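 Luminescent ATP read-out (firefly luciferase) used as a total cell count after 72 h compound exposure at 37° C, 5% CO2. Cells: 10,000/well in RPMI + 10% FBS. GI50 = 50% inhibition relative to 0.1% DMSO, from a sigmoid dose-response fit; duplicates.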

MV4-11 cells = assay: Leukemia cell proliferation inhibition test (ATPlite), MV4-11; format: cell-based; details: Homo sapiens, MV4-11, 72 h, MV4-11, 72 hours culture, ATPlite; GI50 per method; read-out: MV4-11 cell proliferation inhibition effect
How it was run: as §1

SMILES	IC50 [1] [µM]	IC50 (Molm-13 cells) [µM]	IC50 (MV4-11 cells) [µM]
CCCNc1nc(Nc2cccc(F)c2)ncc1C#CCCCNC(=O)[C@@H]1CC(F)(F)CN1C(=O)/C=C/CN(C)C [Compound 7-53]	0.01 to 0.1	< 0.01	< 0.01
CCCNc1nc(Nc2ccc(C#N)cc2)ncc1C#CCCCNC(=O)[C@@H]1CC(F)(F)CN1C(=O)/C=C/CN(C)C [Compound 7-54]	0.01 to 0.1	< 0.01	< 0.01
CCCNc1nc(Nc2ccc(C#N)cc2)ncc1C#CCCCNC(=O)[C@@H]1C[C@H](O)CN1C(=O)/C=C/CN(C)C [Compound 7-69]	< 0.01	< 0.01	< 0.01
CCCCN(CC(=O)NCCCC#Cc1cnc(Nc2ccc(C#N)cc2)nc1NCCC)C(=O)/C=C/CN(C)C [Compound 7-70]	< 0.01	< 0.01	< 0.01
CCCCCN(CC(=O)NCCCC#Cc1cnc(Nc2ccc(C#N)cc2)nc1NCCC)C(=O)/C=C/CN(C)C [Compound 7-71]	< 0.01	< 0.01	< 0.01
CNc1nc(Nc2cccc(F)c2)ncc1C#CCCCNC(=O)[C@@H]1C[C@H](F)CN1C(=O)/C=C/CN(C)C [Compound 7-72, (2S,4S)-1-((E)-4-(Dimethylamino)-2-butenoyl)-4-fluoro-N-(5-(2-((3-fluorophenyl)amino)-4-(methylamino)pyrimidin-5-yl)-4-pentyn-1-yl)pyrrolidine-2-carboxamide]	< 0.01	< 0.01	< 0.01
CNc1nc(Nc2cccc(F)c2)ncc1C#CCCCNC(=O)[C@@H]1C[C@H](OC)CN1C(=O)/C=C/CN(C)C [Compound 7-73, (2S,4S)-1-((E)-4-(Dimethylamino)-2-butenoyl)-N-(5-(2-((3-fluorophenyl)amino)-4-(methylamino)pyrimidin-5-yl)-4-pentyn-1-yl)-4-methoxypyrrolidine-2-carboxamide]	< 0.01	< 0.01	< 0.01
CNc1nc(Nc2cccc(F)c2)ncc1C#CCCCNC(=O)[C@@H]1C[C@H](O)CN1C(=O)/C=C/CN(C)C [Compound 7-74]	< 0.01	< 0.01	< 0.01
CNc1nc(Nc2cccc(C#N)c2)ncc1C#CCCCNC(=O)[C@@H]1C[C@H](F)CN1C(=O)/C=C/CN(C)C [Compound 7-75]	< 0.01	< 0.01	< 0.01
CNc1nc(Nc2cccc(C#N)c2)ncc1C#CCCCNC(=O)[C@@H]1CCCN1C(=O)/C=C/CN(C)C [Compound 7-76]	< 0.01	< 0.01	< 0.01
CNc1nc(Nc2cccc(F)c2)ncc1C#CCCCNC(=O)[C@@H]1CCCN1C(=O)/C=C/CN(C)C [Compound 7-77]	< 0.01	< 0.01	< 0.01
CCCNc1nc(Nc2cc(C)no2)ncc1C#CCCCNC(=O)[C@H](C)N(C)C(=O)/C=C/CN(C)C [Compound 7-78]	< 0.01	0.01 to 0.1	< 0.01
CCCNc1nc(Nc2cc(C)no2)ncc1C#CCCCNC(=O)[C@@H]1CCCN1C(=O)/C=C/CN(C)C [Compound 7-79]	< 0.01	< 0.01	< 0.01
CNc1nc(Nc2ccc(F)cc2)ncc1C#CCCCNC(=O)[C@@H]1C[C@H](F)CN1C(=O)/C=C/CN(C)C [Compound 7-80, (2S,4S)-1-((E)-4-(Dimethylamino)-2-butenoyl)-4-fluoro-N-(5-(2-((4-fluorophenyl)amino)-4-(methylamino)pyrimidin-5-yl)-4-pentyn-1-yl)pyrrolidine-2-carboxamide]	< 0.01	< 0.01	< 0.01
CNc1nc(Nc2ccc(F)cc2)ncc1C#CCCCNC(=O)[C@@H]1C[C@@H](F)CN1C(=O)/C=C/CN(C)C [Compound 7-81, (2S,4R)-1-((E)-4-(Dimethylamino)-2-butenoyl)-4-fluoro-N-(5-(2-((4-fluorophenyl)amino)-4-(methylamino)pyrimidin-5-yl)-4-pentyn-1-yl)pyrrolidine-2-carboxamide]	< 0.01	< 0.01	< 0.01

Other lines, results leading:

IC50 [1] [µM]	IC50 (Molm-13 cells) [µM]	IC50 (MV4-11 cells) [µM]	SMILES
< 0.01	< 0.01	< 0.01	CCCNc1nc(Nc2cccc(F)c2)ncc1C#CCCCNC(=O)[C@@H]1C[C@H](F)CN1C(=O)/C=C/CN(C)C [Compound 7-49]
< 0.01	< 0.01	< 0.01	CCCNc1nc(Nc2ccc(C#N)cc2)ncc1C#CCCCNC(=O)[C@@H]1C[C@H](F)CN1C(=O)/C=C/CN(C)C [Compound 7-50]
< 0.01	< 0.01	< 0.01	CCCNc1nc(Nc2cccc(F)c2)ncc1C#CCCCNC(=O)[C@@H]1CCN1C(=O)/C=C/CN(C)C [Compound 7-51]
< 0.01	< 0.01	< 0.01	CCCNc1nc(Nc2ccc(C#N)cc2)ncc1C#CCCCNC(=O)[C@@H]1CCN1C(=O)/C=C/CN(C)C [Compound 7-52]
< 0.01	< 0.01	< 0.01	CCCNc1nc(Nc2ccc(C#N)cc2)ncc1C#CCCCNC(=O)[C@H](COC)N(C)C(=O)/C=C/CN(C)C [Compound 7-55]
< 0.01	< 0.01	< 0.01	COc1ccc(Nc2ncc(C#CCCCNC(=O)[C@H](C)N(C)C(=O)/C=C/CN(C)C)c(NCCCF)n2)cc1F [Compound 7-56, (S,E)-4-(Dimethylamino)-N-(1-((5-(2-((3-fluoro-4-methoxyphenyl)amino)-4-((3-fluoropropyl)amino)pyrimidin-5-yl)-4-pentyn-1-yl)amino)-1-oxopropan-2-yl)-N-methyl-2-butenamide]
< 0.01	< 0.01	< 0.01	CCCNc1nc(Nc2ccc(C#N)cc2)ncc1C#CCCCNC(=O)CNC(=O)/C=C/CN(C)C [Compound 7-57]
< 0.01	< 0.01	< 0.01	CCCNc1nc(Nc2cccc(F)c2)ncc1C#CCCCNC(=O)[C@@H]1C[C@@H](OC)CN1C(=O)/C=C/CN(C)C [Compound 7-58]
< 0.01	< 0.01	< 0.01	CCCNc1nc(Nc2cccc(F)c2)ncc1C#CCCCNC(=O)[C@@H]1C[C@H](OC)CN1C(=O)/C=C/CN(C)C [Compound 7-59]
< 0.01	< 0.01	< 0.01	CCCNc1nc(Nc2ccc(C#N)cc2)ncc1C#CCCCNC(=O)[C@@H]1C[C@@H](OC)CN1C(=O)/C=C/CN(C)C [Compound 7-60]
< 0.01	< 0.01	< 0.01	CCCNc1nc(Nc2ccc(C#N)cc2)ncc1C#CCCCNC(=O)[C@@H]1C[C@H](OC)CN1C(=O)/C=C/CN(C)C [Compound 7-61]
< 0.01	< 0.01	< 0.01	CCCNc1nc(Nc2ccc(C#N)cc2)ncc1C#CCCCNC(=O)[C@H](CO)N(C)C(=O)/C=C/CN(C)C [Compound 7-62, (S,E)-N-(1-((5-(2-((4-Cyanophenyl)amino)-4-(propylamino)pyrimidin-5-yl)-4-pentyn-1-yl)amino)-3-hydroxy-1-oxopropan-2-yl)-4-(dimethylamino)-N-methyl-2-butenamide]
< 0.01	< 0.01	< 0.01	CCCNc1nc(Nc2ccc(C#N)cc2)ncc1C#CCCCNC(=O)[C@H]([C@@H](C)O)N(C)C(=O)/C=C/CN(C)C [Compound 7-63]
< 0.01	< 0.01	< 0.01	CCCNc1nc(Nc2ccc(C#N)cc2)ncc1C#CCCCNC(=O)CN(CCC)C(=O)/C=C/CN(C)C [Compound 7-64]
< 0.01	< 0.01	< 0.01	CCCNc1nc(Nc2ccc(C#N)cc2)ncc1C#CCCCNC(=O)CN(CC(C)C)C(=O)/C=C/CN(C)C [Compound 7-65]
< 0.01	< 0.01	< 0.01	CCCNc1nc(Nc2cccc(F)c2)ncc1C#CCCCNC(=O)[C@@H]1C[C@@H](O)CN1C(=O)/C=C/CN(C)C [Compound 7-66, (2S,4R)-1-((E)-4-(Dimethylamino)-2-butenoyl)-N-(5-(2-((3-fluorophenyl)amino)-4-(propylamino)pyrimidin-5-yl)-4-pentyn-1-yl)-4-hydroxypyrrolidine-2-carboxamide]
< 0.01	< 0.01	< 0.01	CCCNc1nc(Nc2cccc(F)c2)ncc1C#CCCCNC(=O)[C@@H]1C[C@H](O)CN1C(=O)/C=C/CN(C)C [Compound 7-67]
< 0.01	< 0.01	< 0.01	CCCNc1nc(Nc2ccc(C#N)cc2)ncc1C#CCCCNC(=O)[C@@H]1C[C@@H](O)CN1C(=O)/C=C/CN(C)C [Compound 7-68]
